PMC6445123 (Scientific Reports, 2019)
Read-outs that look alike come from different tables or passages of the source.

Assays:
[1] = target: T1, recombinant active Casp6 (Casp6-WT) (Homo sapiens, UniProt P55212, INS179NQTEKLDTNITEVD); test: Fluorescence-based Ac-VEID-AFC cleavage assay (Casp6 activity, IC50 determination); assay type: biochemical
T1 construct: generating mainly large subunit with a linker (LS-L), small subunit (SS), and a minor amount of large subunit (LS); His (C); made in house; host or cells: E. coli BL21(DE3)pLysS
T1 sequence (P55212 24-193 limits assumed): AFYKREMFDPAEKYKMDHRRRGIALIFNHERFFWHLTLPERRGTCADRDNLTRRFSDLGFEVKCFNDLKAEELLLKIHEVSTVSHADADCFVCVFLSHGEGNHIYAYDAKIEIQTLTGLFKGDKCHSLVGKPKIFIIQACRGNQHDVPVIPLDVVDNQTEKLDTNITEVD
T1 sequence (P55212 194-293 limits assumed): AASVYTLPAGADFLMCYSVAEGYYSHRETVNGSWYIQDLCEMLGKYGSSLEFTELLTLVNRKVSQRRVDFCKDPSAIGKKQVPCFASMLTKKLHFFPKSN
Description: To assess the potency of in silico hits, a fluorescence-based Ac-VEID-AFC cleavage assay was used to measure recombinant active Casp6 reaction rate in the absence or presence of 100 µM concentration of compounds. A 30% inhibition cut off was arbitrarily chosen for further investigation of putative inhibitors. […] AFC signal interference by compound intrinsic fluorescence was ruled out (Fig. S4). Casp6 inhibition was confirmed for seven compounds (C7, C13, C14, S2, S10, S11 and S13) using a colorimetric Ac-VEID-pNA cleavage assay (Table 2, Fig. S3).
Casp6 active sites were quantified using zVAD-FMK (N-benzyloxycarbonyl-Val-Ala-Asp-(O-methyl)-fluoromethylketone, MP Biomedicals, Santa Ana, CA, USA)[51],[64]. Casp6 activity was measured in Stennicke’s buffer (SB: 20 mM piperazine-N,N′-bis-(2-ethanesulfonic acid) pH 7.2, 100 mM NaCl, 10 mM DTT, 1 mM EDTA, 0.1% 3-[(3-cholamidopropyl)-dimethylammonio]-2-hydroxy-1-propanesulfonic acid, 10% sucrose)[65] using 40 µM Ac-VEID-AFC (Ac-Val-Glu-Ile-Asp-7-Amino-4-trifluoromethylcoumarin, Enzo Life Sciences, Farmingdale, NY, USA)[64] and 10-250 nM active site titrated Casp6. Reactions were initiated by Ac-VEID-AFC addition and followed for 20 min at 37 °C in a black clear bottom 96-well microplate (Costar, Corning, NY, USA) in Synergy H4 Hybrid instrument (BioTek, Winooski, VT, USA) with excitation/emission at 380/505 nm. Released AFC was calculated from AFC standard curve (0-25 µM). Casp6 VEIDase activity (released pmol AFC/min) was calculated from the initial linear reaction part. Ac-VEID-AFC hydrolysis initial velocities were measured with 10 nM active-site titrated Casp6 and […] Ac-VEID-AFC. Initial velocities v versus substrate concentration [S] were fit to a rectangular hyperbola using Michaelis-Menten equation in GraphPad Prism 5 (GraphPad Software, La Jolla, CA, USA).
In fluorescence-based Casp6 activity assay, 10 µM Ac-VEID-AFC was added to 20 nM Casp6 in SB with 100 μM compound and 1% dimethyl sulfoxide (DMSO), and reaction rate was measured for 20 min at 37 °C as above. Compound potency was calculated by normalising Ac-VEID-AFC cleavage rate to 1% DMSO control. In colorimetric Casp6 activity assay, 200 µM Ac-VEID-pNA (N-acetyl-Val-Glu-Ile-Asp-p-nitroanilide, Enzo Life Sciences) was added to 200 nM Casp6 in SB with 100 μM compound, and Ac-VEID-pNA cleavage rate was measured at 37 °C for 30 min in clear 96-well plate (Sartstedt, Nümbrecht, Germany) using Synergy H4 plate reader at 405 nm. Absorbance was converted to the released pNA amount based on a standard curve of 0–250 µM pNA. Cleavage rates were calculated from the linear assay phase and were normalised to 1% DMSO control. In Casp6-C163A cleavage assay, 0.5 ng/µl Casp6-WT was preincubated with 100 µM inhibitor, 5 µM Q-VD-OPh or 1% DMSO in SB (30 min, RT), followed by transfer on ice, addition of 0.5 µg/µl Casp6-C163A, and incubation (37 °C, 5, 10 and 15 min). Reactions were stopped by adding SDS-PAGE sample buffer (62.5 mM Tris pH 6.8, 2% SDS, 0.1 M DTT, 0.01% Bromphenol Blue, 10% glycerol) and heating (5 min, 95 °C). Samples (2 µl) were analysed on 15% SDS-PAGE gels, proteins were stained with Coomassie blue, and gels were de-stained with 10% acetic acid. The intensities of protein bands were quantified from scanned gels using ImageJ. The band intensity of Casp6-C163A without a prodomain was plotted against the time and the Casp6-C163A cleavage rates were calculated from the slopes of linear plots. The % activity of Casp6-WT in the presence of inhibitors was calculated relative to DMSO control.
IC50 values were determined against 20 nM Casp6 active sites in fluorescence-based Casp6 activity assay with 10 µM Ac-VEID-AFC and 1 nM-500 µM inhibitor. IC50 was calculated with GraphPad Prism 5 by a nonlinear regression fit for log inhibitor vs relative Casp6 activity (% DMSO control) using a Hill slope of – 1, and top and bottom constraints of 100 and 0, respectively.

Casp6 = target: T2, Casp6 (Homo sapiens, UniProt P55212, INS179NQTEKLDTNITEVD); test: Reversibility of Casp6 inhibition (pre-incubation at 10-fold IC50, rapid 100-fold dilution); assay type: biochemical; conditions: recovery of activity after 60 min pre-incubation and 100-fold dilution
T2 construct: generating mainly large subunit with a linker (LS-L), small subunit (SS), and a minor amount of large subunit (LS); His (C); made in house; host or cells: E. coli BL21(DE3)pLysS
T2 sequence (P55212 24-193 limits assumed): T1 sequence (P55212 24-193 limits assumed)
T2 sequence (P55212 194-293 limits assumed): T1 sequence (P55212 194-293 limits assumed)
Description: Supplementary Figure S5. Mechanism of Casp6 inhibition with C13 and S10G. (a) Inhibition of Casp6 with C13 (left panel) and S10G (right panel) is reversible. The recovery of Casp6 activity after 60 min pre-incubation with C13 and S10G at a concentration of inhibitor equal to 10-fold the IC50 value followed by a rapid 100-fold […]
(1 picture or pasted object on this page, not shown here) […]
dilution into Casp6 activity assay solution. The control samples DMSO and Q-VD-OPh were pre-incubated and diluted in the absence of inhibitor, and in the presence of an irreversible inhibitor Q-VD-OPh, respectively. Data points represent mean ± standard error of the mean (SEM) from three independent experiments. (b) Coomassie stain of SDS-PAGE of purified recombinant WT -, L200A-, and K284A-Casp6 (left panel) expressed from a full -length Casp6 encoding construct (Fig. 1c ), and copurified LS and SS of WT -, L200A-, and K284A-LS-SS-Casp6 (right panel). FL (full-length Casp6), ΔCasp6 (Casp6 without a prodomain), LS-L (large subunit with linker), LS (large subunit), and SS (small subunit) depict different bands of Casp6. (c) Michaelis-Menten kinetic plots (top panel) and calculated KM and Vmax values (bottom panel) for Casp6-WT-LS-SS (left panel), Casp6-L200A-LS-SS (middle panel), and Casp6-K284A-LS-SS (right panel) enzymatic activity in presence of 1% DMSO (0 µM C13) or increasing doses of C13. […]

- inhibition at 100 µM ([1]; 100 µM compound, 10 µM Ac-VEID-AFC, 20 nM Casp6, relative to 1% DMSO control): 57.1 ± 4.7%
- IC50 ([1]; Casp6-WT, compared with Casp6-K284A, read-out: IC50 of C13 for Casp6-WT (Fig. 4f)): 17.2 ± 3.6 µM
- IC50 ([1]; fluorescence assay, 20 nM Casp6 active sites, 10 µM Ac-VEID-AFC, read-out: IC50): 13.2 ± 2.5 µM
- potency for Casp6 of in-house synthesised compound compared to commercial compound ([1]; synthesised in the authors' laboratory vs commercial source): lower potency
- reversibility of Casp6 inhibition (Casp6): reversible
Compound: COC(=O)c1cc(CNC(=O)C2Cc3ccccc3O2)cc(NC(=O)c2ccco2)c1 (centres unmarked) [Compound C13]
